Literature values as cited in patent US5654452A, “Lipophilic contrast agents for use in hepatocyte-selective oil-in-water emulsions” (Molecular Biosystems, Inc., priority 1995, dated 1997).

Test system: reticulendothelial system (RES)
Conditions: in vivo

CCOC(=O)c1c(I)cc(I)c(NC(=O)CCCCC(=O)Nc2c(I)cc(I)c(C(=O)OCC)c2I)c1I [iodipamide ethyl esters]
uptake / liver specificity in reticuloendothelial system: liver specificity is mediated primarily via sequestration by the reticulendothelial system (RES)
